What was measured:
Phosphodiesterase 1 [1] = biological target: T1, Phosphodiesterase 1 (Homo sapiens, UniProt P54750+Q01064+Q14123); experiment: Inhibition of PDE1 at 10 uM; assay type: protein assay; design: scale not given: the % may be the effect or the level left
[2] = biological target: T2, cGMP-specific 3',5'-cyclic phosphodiesterase (Homo sapiens, UniProt O76074); experiment: Inhibition of PDE5 at 10 uM; design: scale not given: the % may be the effect or the level left
Phosphodiesterase 1 [3] = biological target: T1, Phosphodiesterase 1; experiment: Inhibition of PDE1; assay type: protein assay
[4] = biological target: T2, cGMP-specific 3',5'-cyclic phosphodiesterase; experiment: Inhibition of PDE5

Row | Activity (Phosphodiesterase 1 [1]) [%] | Activity [2] [%] | IC50 (Phosphodiesterase 1 [3]) [nM] | IC50 [4] [nM] | Compound
1 | 12 | 39 | – | – | CCOc1ccc2nc(SCC(=O)NCc3ccc(C(=O)O)cc3)sc2c1
2 | – | – | 5700 | 1700 | N#Cc1c(N)nc(SCC(=O)Nc2ccc(F)cc2)c(C#N)c1-c1ccccc1
3 | 59 | 46 | – | – | COc1cc(/C=C2\SC(=S)N(CC(=O)O)C2=O)ccc1OC(=O)c1cccs1
4 | – | – | 2500 | 6300 | Cc1ccc(-c2cc(C(=O)Nc3ccc(S(N)(=O)=O)cc3)c3ccccc3n2)s1
5 | 49 | 19 | – | – | Cc1cc(C(=O)Nc2cccc(C(=O)O)c2)cc(S(=O)(=O)Nc2cccc(C(=O)O)c2)c1C
6 | 45 | 66 | – | – | NS(=O)(=O)c1ccc(-c2ccc(/C=C3/C(=O)NN(c4cccc(C(F)(F)F)c4)C3=O)o2)cc1
7 | – | – | 1900 | 700 | N#Cc1c(C(F)(F)F)cc(-c2cccs2)nc1SCc1ccc(C(=O)O)cc1
8 | – | – | 2500 | 3000 | COc1ccccc1Nc1nc(-c2sc(N)nc2C)cs1
9 | – | – | 3700 | 3100 | O=C(O)c1ccc(-c2ccc(-c3nc(O)c4c5c(sc4n3)CCCC5)o2)cc1
10 | – | – | 2500 | 2100 | N#Cc1c(/N=C/c2ccc(-c3ccc(C(=O)O)cc3)o2)sc2c1CCCC2
11 | 15 | 44 | – | – | Cc1cc(C)nc(NS(=O)(=O)c2ccc(NC(=O)c3cccc(NC(=O)C(F)(F)F)c3)cc2)n1
12 | – | – | 300 | 8700 | Cn1c(=O)[nH]c(=O)c2c1nc(S)n2CC(O)COc1ccc2ccccc2c1 (stereo not drawn)
13 | 25 | 23 | – | – | COc1cc(C2CC(=O)NC(SCC(=O)Nc3ccc(Br)cc3)=C2C#N)ccc1O (stereo not drawn)
14 | 9 | 42 | – | – | COc1ccc(-c2csc(-n3[nH]c(C)c(C(c4ccccc4)C(C#N)C(N)=O)c3=O)n2)cc1 (stereo not drawn)
15 | 22 | 53 | – | – | Cc1cccc(NCc2n[nH]c(SCC(=O)Nc3cc([N+](=O)[O-])ccc3Cl)n2)c1
16 | 22 | 1 | – | – | O=C(CSc1nnc(-c2ccccc2O)o1)NNC(=O)Cc1ccccc1
17 | 42 | 48 | – | – | Cc1oc(C(=O)N2CCCC2C(=O)O)cc1COc1ccc2oc3ccccc3c2c1 (stereo not drawn)
18 | 21 | 51 | – | – | COc1ccc(-c2nc(NC(=O)CSCC(=O)O)sc2C)cc1
19 | 9 | 52 | – | – | N#CC1=C(N)OC2=C(C(=O)CCC2)C1c1ccc(OCC(=O)Nc2cccc(C(F)(F)F)c2)cc1 (stereo not drawn)
